Measurements: patent US9586951B2 (FUJIFILM Corporation, priority 2013, dated 2017)

Biological target: T1, ATM (Homo sapiens, UniProt Q13315)
T1 construct: detecting phosphorylation of Chk2 in a human non-small cell lung cancer cell line NCI-H460 (ATCC company); host or cells: NCI-H460 human non-small cell lung cancer cells
Experiment: ATM inhibition test (phosphorylation of Chk2 generated by ionizing radiation, AlphaScreen SureFire)
Assay type: cell-based
Settings: ATM inhibitory activity, phosphorylated Chk2 in NCI-H460 cells, ionizing radiation 8Gy, 1 hour after test compound treatment
Outline: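 Human NCI-H460 lung cancer cells were treated with compound for 1 h, then irradiated at 8Gy and incubated 1 h at 37° C. Phospho-Chk2 was quantified by AlphaScreen SureFire; inhibition % was normalised between irradiated untreated and non-irradiated untreated wells.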

T1 sequence (Q13315 whole entry): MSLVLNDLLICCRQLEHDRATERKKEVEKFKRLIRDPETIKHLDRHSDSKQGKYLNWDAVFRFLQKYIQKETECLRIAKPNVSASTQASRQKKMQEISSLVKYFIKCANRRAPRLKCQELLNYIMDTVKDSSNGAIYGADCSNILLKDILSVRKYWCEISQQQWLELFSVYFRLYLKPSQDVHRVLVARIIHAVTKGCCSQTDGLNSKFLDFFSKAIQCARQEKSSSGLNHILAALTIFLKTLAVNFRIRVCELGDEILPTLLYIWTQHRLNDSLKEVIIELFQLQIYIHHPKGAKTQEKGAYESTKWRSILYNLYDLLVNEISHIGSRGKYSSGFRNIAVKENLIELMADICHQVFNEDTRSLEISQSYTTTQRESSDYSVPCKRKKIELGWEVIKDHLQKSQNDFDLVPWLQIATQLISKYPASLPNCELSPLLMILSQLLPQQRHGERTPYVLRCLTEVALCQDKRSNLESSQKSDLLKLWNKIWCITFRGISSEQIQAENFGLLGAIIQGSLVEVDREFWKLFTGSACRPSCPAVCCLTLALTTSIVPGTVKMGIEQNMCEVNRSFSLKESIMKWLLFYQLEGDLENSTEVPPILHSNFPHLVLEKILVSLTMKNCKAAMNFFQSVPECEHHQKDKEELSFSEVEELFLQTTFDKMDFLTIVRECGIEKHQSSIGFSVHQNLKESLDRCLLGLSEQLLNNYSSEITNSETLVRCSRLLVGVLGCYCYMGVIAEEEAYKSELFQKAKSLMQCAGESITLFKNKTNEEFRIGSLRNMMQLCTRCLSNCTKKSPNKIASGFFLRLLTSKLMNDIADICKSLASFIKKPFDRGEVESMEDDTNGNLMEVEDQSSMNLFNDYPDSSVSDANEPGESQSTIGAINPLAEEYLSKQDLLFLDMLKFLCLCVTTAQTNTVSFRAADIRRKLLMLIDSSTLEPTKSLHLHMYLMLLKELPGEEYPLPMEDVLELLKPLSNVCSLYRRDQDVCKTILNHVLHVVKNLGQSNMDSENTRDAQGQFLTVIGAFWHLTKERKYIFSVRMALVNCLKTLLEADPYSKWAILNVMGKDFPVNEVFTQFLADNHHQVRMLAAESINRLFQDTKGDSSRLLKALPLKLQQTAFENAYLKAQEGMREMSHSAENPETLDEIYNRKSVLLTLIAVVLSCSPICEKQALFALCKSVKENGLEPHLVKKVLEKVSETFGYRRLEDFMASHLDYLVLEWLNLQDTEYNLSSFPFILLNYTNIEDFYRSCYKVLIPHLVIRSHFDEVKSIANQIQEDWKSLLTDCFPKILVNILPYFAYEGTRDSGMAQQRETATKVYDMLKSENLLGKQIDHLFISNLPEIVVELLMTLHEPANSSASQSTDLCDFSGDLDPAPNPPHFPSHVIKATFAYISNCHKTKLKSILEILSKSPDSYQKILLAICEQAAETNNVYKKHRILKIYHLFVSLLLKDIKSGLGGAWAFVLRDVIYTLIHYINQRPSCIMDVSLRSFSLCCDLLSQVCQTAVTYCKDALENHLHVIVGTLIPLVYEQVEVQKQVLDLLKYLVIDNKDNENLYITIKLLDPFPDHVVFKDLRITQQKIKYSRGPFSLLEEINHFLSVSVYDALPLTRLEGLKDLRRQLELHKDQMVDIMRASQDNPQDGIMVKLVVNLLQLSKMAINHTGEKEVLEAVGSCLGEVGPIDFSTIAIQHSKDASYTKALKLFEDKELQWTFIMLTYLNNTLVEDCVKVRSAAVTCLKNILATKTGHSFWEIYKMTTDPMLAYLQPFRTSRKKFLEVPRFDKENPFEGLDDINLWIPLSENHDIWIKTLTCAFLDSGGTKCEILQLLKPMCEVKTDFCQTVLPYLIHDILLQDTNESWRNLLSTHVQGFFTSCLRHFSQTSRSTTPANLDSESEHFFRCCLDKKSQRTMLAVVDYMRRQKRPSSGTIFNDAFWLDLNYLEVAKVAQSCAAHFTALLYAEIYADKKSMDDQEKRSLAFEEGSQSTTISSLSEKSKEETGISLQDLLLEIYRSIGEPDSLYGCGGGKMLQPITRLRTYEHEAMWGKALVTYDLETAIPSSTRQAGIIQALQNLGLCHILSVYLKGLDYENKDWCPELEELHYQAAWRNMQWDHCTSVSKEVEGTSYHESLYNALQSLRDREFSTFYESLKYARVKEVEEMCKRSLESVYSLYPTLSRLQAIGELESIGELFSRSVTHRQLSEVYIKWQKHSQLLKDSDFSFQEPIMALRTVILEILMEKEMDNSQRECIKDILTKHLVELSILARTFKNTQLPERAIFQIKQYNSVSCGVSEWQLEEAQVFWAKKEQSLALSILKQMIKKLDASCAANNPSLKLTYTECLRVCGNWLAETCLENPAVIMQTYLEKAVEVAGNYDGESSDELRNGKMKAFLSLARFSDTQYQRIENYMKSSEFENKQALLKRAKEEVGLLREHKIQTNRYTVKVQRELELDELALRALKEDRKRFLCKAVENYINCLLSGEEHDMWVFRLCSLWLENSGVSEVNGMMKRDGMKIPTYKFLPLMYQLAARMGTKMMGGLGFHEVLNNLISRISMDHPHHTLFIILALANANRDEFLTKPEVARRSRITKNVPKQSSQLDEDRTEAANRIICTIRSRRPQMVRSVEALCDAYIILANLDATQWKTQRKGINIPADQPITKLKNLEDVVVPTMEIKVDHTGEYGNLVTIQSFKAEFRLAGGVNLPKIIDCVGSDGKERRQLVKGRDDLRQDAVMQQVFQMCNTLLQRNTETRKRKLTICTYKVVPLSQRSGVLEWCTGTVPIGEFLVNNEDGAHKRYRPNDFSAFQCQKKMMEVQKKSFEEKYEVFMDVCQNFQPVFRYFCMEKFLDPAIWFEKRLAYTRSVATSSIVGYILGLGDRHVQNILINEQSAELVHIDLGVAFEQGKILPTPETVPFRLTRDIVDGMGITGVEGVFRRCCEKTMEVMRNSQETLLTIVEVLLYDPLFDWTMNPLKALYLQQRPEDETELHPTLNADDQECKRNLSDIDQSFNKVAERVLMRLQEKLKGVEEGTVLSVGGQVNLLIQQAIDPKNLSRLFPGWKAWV

Compound	IC50
O=c1cc(N2CCOCC2)cc(-c2cccc3c2Sc2ccc(NCc4cccc(N5CCOCC5)n4)cc2S3)[nH]1 [Example 1-12-32, 4-Morpholino-6-(7-(((6-morpholinopyridin-2-yl)methyl)amino)thianthren-1 yl)pyridin-2(1H)-one]	100 to 500 nM

Same assay, conditions: phosphorylated Chk2 in NCI-H460 cells, ionizing radiation 8Gy, 1 hour after test compound treatment; read-out: ATM inhibitory activity

Compound	IC50
Cc1ccc(C(Nc2ccc3c(c2)Sc2cccc(-c4cc(N5CCOCC5)cc(=O)[nH]4)c2S3)[C@@H]2CCCN2C)nc1 (single isomer, unassigned) [Example 1-56-2]	100 to 500 nM
CN(C)CCNc1ccc2c(c1)Sc1cccc(-c3cc(N4CCOCC4)cc(=O)[nH]3)c1S2 [Example 1-10-4, 6-(7-((2-(Dimethylamino)ethyl)amino)thianthren-1-yl)-4-morpholinopyridin-2(1H)-one]	100 to 500 nM
O=c1cc(N2CCOCC2)cc(-c2cccc3c2Oc2ccc(NC4CCN(Cc5ncccn5)CC4)cc2C3)[nH]1 [Example 2-28-3, 4-Morpholino-6-(7-((1-(pyrimidin-2-ylmethyl)piperidin-4-yl)amino)-9H-xanthen-4-yl)pyridin-2 (1H)-one]	500 to 2000 nM
CCN(CC)CC(Nc1ccc2c(c1)Sc1cccc(-c3cc(N4CCOCC4)cc(=O)[nH]3)c1S2)c1ncc(C)cn1 (stereo not drawn) [Example 1-12-106, 6-(7-((2-(Diethylamino)-1-(5-methylpyrimidin-2-yl)ethyl)amino)thianthren-1-yl)-4-morpholino pyridin-2(1H)-one]	100 to 500 nM
COC(=O)CCCCN1CCC(Nc2ccc3c(c2)Cc2cccc(-c4cc(N5CCOCC5)cc(=O)[nH]4)c2O3)CC1 [Example 2-30-16, Methyl 5-(4-((5-(4-morpholino-6-oxo-1,6-dihydropyridin-2-yl)-9H-xanthen-2-yl)amino)piperidin-1-yl)pentanoate]	100 to 500 nM
O=c1cc(N2CCOCC2)cc(-c2cccc3c2Oc2ccc(NC4CCN(c5ccccn5)CC4)cc2C3)[nH]1 [Example 2-2-27, 4-Morpholino-6-(7-((1-(pyridin-2-yl)piperidin-4-yl)amino)-9H-xanthen-4-yl) pyridin-2(1H)-one]	100 to 500 nM
O=c1cc(N2CCOCC2)cc(-c2cccc3c2Oc2ccc(NCc4ccnc(N5CCOCC5)n4)cc2C3)[nH]1 [Example 2-14-69, 4-Morpholino-6-(7-(((2-morpholinopyrimidin-4-yl)methyl)amino)-9H-xanthen-4-yl)pyridin-2(1H)-one]	100 to 500 nM
Cc1cncc(C(C)Nc2ccc3c(c2)Cc2cccc(-c4cc(N5CCOCC5)cc(=O)[nH]4)c2O3)n1 (stereo not drawn) [Example 2-14-49, 6-(7-((1-(6-Methylpyrazin-2-yl)ethyl)amino)-9H-xanthen-4-yl)-4-morpholino pyridin-2(1H)-one]	100 to 500 nM
CNc1ccc(CN2CCC(Nc3ccc4c(c3)Cc3cccc(-c5cc(N6CCOCC6)cc(=O)[nH]5)c3O4)CC2)cn1 [Example 2-28-8, 6-(7-((1-((6-(Methylamino)pyridin-3-yl)methyl)piperidin-4-yl)amino)-9H-xanthen-4-yl)-4-morpholino pyridin-2(1H)-one]	100 to 500 nM
CN1CCN(c2cc(CNc3ccc4c(c3)Cc3cccc(-c5cc(N6CCOCC6)cc(=O)[nH]5)c3O4)ccn2)CC1 [Example 2-22-2, 6-(7-(((2-(4-methylpiperazin-1-yl)pyridin-4-yl)methyl)amino)-9H-xanthen-4-yl)-4-morpholinopyridin-2(1H)-one]	100 to 500 nM
N#Cc1ccc(CNc2ccc3c(c2)Cc2cccc(-c4cc(N5CCOCC5)cc(=O)[nH]4)c2O3)s1 [Example 2-14-32, 6-(7-(((5-Isocycanothiophen-2-yl)methyl)amino)-9H-xanthen-4-yl)-4-morpholino pyridin-2(1H)-one]	< 100 nM
Nc1ccc2c(c1)Cc1cccc(-c3cc(N4CCOCC4)cc(=O)[nH]3)c1O2 [Example 2-1-1, 5-6-(7-amino-9H-xanthen-4-yl)-4-morpholinopyridin-2(1H)-one]	500 to 2000 nM
Cc1cccc(C(C)Nc2ccc3c(c2)Cc2cccc(-c4cc(N5CCOCC5)cc(=O)[nH]4)c2O3)n1 (single isomer, unassigned) [Example 2-14-85-1, 6-(7-((1-(6-methylpyridin-2-yl)ethyl)amino)-9H-xanthen-4-yl)-4-morpholinopyridin-2(1H)-one]	100 to 500 nM
CC(C)(C)OC(=O)N1CCC(Nc2ccc3c(c2)Cc2cccc(-c4cc(N5CCOCC5)cc(=O)[nH]4)c2O3)C(F)C1 (stereo not drawn) [Example 2-14-1, tert-Butyl 3-fluoro-4-((5-(4-morpholino-6-oxo-1,6-dihydropyridin-2-yl)-9H-xanthen-2-yl)amino) piperidine-1-carboxylate]	100 to 500 nM
Cc1ccc(C(CC2CC2)Nc2ccc3c(c2)Sc2cccc(-c4cc(N5CCOCC5)cc(=O)[nH]4)c2S3)nc1 (stereo not drawn) [Example 1-12-128, 6-(7-((2-Cyclopropyl-1-(5-methylpyridin-2-yl)ethyl)amino)thianthren-1-yl)-4-morpholino pyridin-2(1H)-one]	100 to 500 nM
CC(CN1CC(F)(F)C1)Nc1ccc2c(c1)Sc1cccc(-c3cc(N4CCOCC4)cc(=O)[nH]3)c1S2 (stereo not drawn) [Example 1-43-4, 6-(7-((1-(3,3-Difluoroazetidin-1-yl)propan-2-yl)amino)thianthren-1-yl)-4-morpholino pyridin-2(1H)-one]	100 to 500 nM

Compound	IC50
CN1CCCC(Nc2ccc3c(c2)Cc2cccc(-c4cc(N5CCOCC5)cc(=O)[nH]4)c2O3)C1 (stereo not drawn) [Example 2-7-1, 6-(7-((1-methylpiperidin-3-yl)amino)-9H-xanthen-4-yl)-4-morpholinopyridin-2(1H)-one]	500 to 2000 nM
O=c1cc(N2CCOCC2)cc(-c2cccc3c2Oc2ccc(NC4CCN(Cc5cccs5)CC4)cc2C3)[nH]1 [Example 2-28-25, 4-Morpholino-6-(7-((1-(thiophen-2-ylmethyl)piperidin-4-yl)amino)-9H-xanthen-4-yl)pyridin-2(1H)-one]	100 to 500 nM
CC(Nc1ccc2c(c1)Sc1cccc(-c3cc(N4CCOCC4)cc(=O)[nH]3)c1S2)c1ncccn1 (stereo not drawn) [Example 1-12-68, 4-Morpholino-6-(7-((1-(pyrimidin-2-yl)ethyl)amino)thianthren-1-yl)pyridin-2 (1H)-one]	100 to 500 nM
Nc1ncccc1CNc1ccc2c(c1)Cc1cccc(-c3cc(N4CCOCC4)cc(=O)[nH]3)c1O2 [Example 2-2-21, 6-(7-(((2-Aminopyridin-3-yl)methyl)amino)-9H-xanthen-4-yl)-4-morpholino pyridin-2(1H)-one]	100 to 500 nM
Cc1ccc(C(Nc2ccc3c(c2)Sc2cccc(-c4cc(N5CCOCC5)cc(=O)[nH]4)c2S3)[C@H]2CCCN2C)nc1 (single isomer, unassigned) [Example 1-56-5]	< 100 nM
CNc1ncc(C(C)Nc2ccc3c(c2)Cc2cccc(-c4cc(N5CCOCC5)cc(=O)[nH]4)c2O3)cn1 (stereo not drawn) [Example 2-14-54, 6-(7-((1-(2-(Methylamino)pyrimidin-5-yl)ethyl)amino)-9H-xanthen-4-yl)-4-morpholino pyridin-2(1H)-one]	100 to 500 nM
CC(CCN1CCCC1)Nc1ccc2c(c1)Sc1cccc(-c3cc(N4CCOCC4)cc(=O)[nH]3)c1S2 (stereo not drawn) [Example 1-42-4, 4-Morpholino-6-(7-((4-(pyrrolidin-1-yl)butan-2-yl)amino)thianthren-1-yl) pyridin-2(1H)-one]	100 to 500 nM
COc1ccc(CNc2ccc3c(c2)Cc2cccc(-c4cc(N5CCOCC5)cc(=O)[nH]4)c2O3)cc1 [Example 2-40, 6-(7-((4-methoxybenzyl)amino)-9H-xanthen-4-yl)-4-morpholinopyridin-2(1H)-one]	100 to 500 nM
COc1cncc(CN2CCC(Nc3ccc4c(c3)Sc3cccc(-c5cc(N6CCOCC6)cc(=O)[nH]5)c3S4)CC2)c1 [Example 1-24-16, 6-(7-((1-((5-Methoxypyridin-3-yl)methyl)piperidin-4-yl)amino)thianthren-1-yl)-4-morpholinopyridin-2(1H)-one]	100 to 500 nM
COC[C@H](CN1CCOCC1)Nc1ccc2c(c1)Cc1cccc(-c3cc(N4CCOCC4)cc(=O)[nH]3)c1O2 [Example 12-5, (S)-6-(7-((1-methoxy-3-morpholinopropan-2-yl)amino)-9H-xanthen-4-yl)-4-morpholinopyridin-2(1H)-one]	100 to 500 nM
O=C(N[C@H]1CC[C@H](Nc2ccc3c(c2)Cc2cccc(-c4cc(N5CCOCC5)cc(=O)[nH]4)c2O3)CC1)OCc1ccccc1 [Example 2-2-54, Benzyl ((trans)-4-((5-(4-morpholino-6-oxo-1,6-dihydropyridin-2-yl)-9H-xanthen-2-yl)amino)cyclohexyl)carbamate]	500 to 2000 nM
O=c1cc(N2CCOCC2)cc(-c2cccc3c2Sc2ccc(OCCN4CCOCC4)cc2S3)[nH]1 [Example 1-47, 4-Morpholino-6-(7-(2-morpholinoethoxy)thianthren-1-yl)pyridin-2(1H)-one]	100 to 500 nM
[N-]=[N+]=NCC(CN1CCOCC1)Nc1ccc2c(c1)Sc1cccc(-c3cc(N4CCOCC4)cc(=O)[nH]3)c1S2 (stereo not drawn) [Example 9-1, 6-(7-((1-azide-3-morpholinopropan-2-yl)amino)thianthren-1-yl)-4-morpholinopyridin-2(1H)-one]	100 to 500 nM
COc1ncc(C(C)Nc2ccc3c(c2)Sc2cccc(-c4cc(N5CCOCC5)cc(=O)[nH]4)c2S3)cn1 (stereo not drawn) [Example 1-12-76]	100 to 500 nM
CC(Nc1ccc2c(c1)Sc1cccc(-c3cc(N4CCOCC4)cc(=O)[nH]3)c1S2)c1cc(C#N)ncn1 (single isomer, unassigned) [Example 1-12-146-2, 6-(1-((6-(4-morpholino-6-oxo-1,6-dihydropyridin-2-yl)thianthren-2-yl)amino)ethyl)pyrimidine-4-carbonitrile]	100 to 500 nM
CC(C)Oc1ccc(CCN2CCC(Nc3ccc4c(c3)Cc3cccc(-c5cc(N6CCOCC6)cc(=O)[nH]5)c3O4)CC2)cc1 [Example 2-30-18, 6-(7-((1-(4-Isopropoxyphenethyl)piperidin-4-yl)amino)-9H-xanthen-4-yl)-4-morpholino pyridin-2(1H)-one]	100 to 500 nM
